Source: patent US6071738A, “Conversion of organosulfur compounds to oxyorganosulfur compounds for desulfurization of fossil fuels” (Energy BioSystems Corporation, priority 1997, dated 2000)
≈ marks a conversion by molar mass, not a printed value. Where two headings read alike, the source gives them in different places. One block for each molecule: values may come before it.

Legend:
[1] = Titration of HPBS with hydrochloric acid or sulfuric acid (acid requirements, pKa, precipitation); format: physicochemical
Experimental: Acid requirements for the precipitation of 2-(2-hydroxyphenyl)benzenesulfinic acid were determined via titration with hydrochloric acid or sulfuric acid for solutions prepared from synthetic HPBS or HPBS derived from the biocatalytic oxidation of DBT. The titrations were conducted using standard methods.
FIG. 2 presents titration curves from 3 experiments. In experiment 1, a 110 mM solution of HPBS at pH 13 was treated with aqueous HCl. The HPBS phenolic group was titrated first, with a pKa of about 10.5. Precipitation of solid 2-(2-hydroxyphenyl)benzenesulfinic acid began at about pH 2, as the sulfinate group was protonated.
In experiment 2, a 110 mM HPBS solution equilibrated with a middle distillate (or diesel fuel) at 30° C. and pH 6.6 was titrated with HCl. The middle distillate was added to determine if the presence of middle distillate components have any effect on the protonation of HPBS.
In experiment 3, a 75 mM solution of HPBS prepared via the biocatalytic oxidation of DBT was titrated with sulfuric acid.

[2] = Precipitation of 2-(2-hydroxyphenyl)benzenesulfinic acid from acidified HPBS solution; supernatant concentration by HPLC and redissolution; format: physicochemical
Experimental: The pH of a concentrated (>50 mM) HPBS solution was adjusted to 1.2 at ambient temperature with concentrated sulfuric acid. An amorphous white precipitate formed rapidly and the supernatant HPBS concentration, as determined by HPLC, dropped to the range of 5-8 μM.

[3] = comparison value for benzenesulfinic acid; cited from earlier work
[4] = Solubility of 2-(2-hydroxyphenyl)benzenesulfinic acid and DBTSi in liquid hydrocarbons; format: physicochemical
Description: Solubility of 2-(2-hydroxyphenyl)benzenesulfinic acid and DBTSi in liquid hydrocarbons
The solubilities of 2-(2-hydroxyphenyl)benzenesulfinic acid and DBTSi in liquid hydrocarbons such as gas-oil or vacuum-gas-oil in an important parameter in process design as such refinery streams represent ultimate disposal sites for HPBS.

Compound: O=S(O)c1ccccc1-c1ccccc1O [HPBS, 2-(2'-hydroxyphenyl)benzenesulfinate]
pKa ([1]; 110 mM HPBS at pH 13 titrated with aqueous HCl, read-out: pKa of phenolic group): ~10.5
solubility ([2]; water, pH 1.2, ambient temperature, concentrated (>50 mM) HPBS, sulfuric acid, HPLC, read-out: supernatant HPBS concentration after precipitation): 5 to 8 µM (≈ 1.17 to 1.87 µg/mL)

Compound: O=S(O)c1ccccc1 [benzenesulfinic acid]
pKa [3]: 1.2

Compound: O=S(O)c1ccccc1-c1ccccc1O [2-(2-hydroxyphenyl)benzenesulfinic acid]
solubility in TMD ([4]; ambient temperature, TMD, x-ray fluorescence detection): below the limits of detection
solubility in hexadecane ([4]; ambient temperature, hexadecane, x-ray fluorescence detection): below the limits of detection
solubility in toluene ([4]; ambient temperature, toluene, x-ray fluorescence detection): below the limits of detection
solubility in gas-oil ([4]; gas-oil, 50° C.): no detectable solubility
solubility in middle distillate ([4]; middle distillate, 50° C.): no detectable solubility
pH at which precipitation of solid began ([1]; 110 mM HPBS titrated with aqueous HCl): ~2
solubility of precipitate in organic solvents, such as toluene ([2]; organic solvents, such as toluene): only sparingly soluble
dissolution of precipitate in water ([2]; water at neutral pH): dissolved rapidly

solubility in gas-oil [4]: ca. 1.4%
solubility in hexadecane [4]: 0.33 % by weight
solubility in middle distillate [4]: ca. 1%
solubility in vacuum gas oil [4]: 4.3%
temperature dependence of solubility in the hydrocarbon [4]: increased with increasing temperature
Compound: O=S1Oc2ccccc2-c2ccccc21 (centres unmarked) [DBTSi, dibenzothiophene sultine]
solubility in liquid hydrocarbons, in words [4]: substantially more soluble in liquid hydrocarbons
